Results: patent US11168057B2, “Polymorphs and co-crystals of roxadustat” (DR. REDDY'S LABORATORIES LIMITED, priority 2017, dated 2021)
Values belong to the compound of their own block, whether it stands above or below them.

Assay: Storage stability in three ICH conditions for three months (water content, purity, PXRD)
Assay type: physicochemical
Conditions: for storage stability: all three ICH conditions for three months
From the text: The data presented below substantiate that the Form RLP has a high storage stability. Pack-1 (Normal LDPE Bag with 1 g Silica Gel, Packed in a HDPE Container):
Pack-2 (Black Colored LDPE Bag with 1 g Silica Gel, Packed in a HDPE Container):
The data presented below substantiate that the Form RNM has a high storage stability.
Pack-1 (LDPE Bag with 1 g Molecular Sieve, Packed in a HDPE Container):
Pack-2 (LDPE Bag with 1 g Silica Gel, Packed in a HDPE Container): […]

[1] = Pack-1 (LDPE Bag with 1 g Molecular Sieve, HDPE Container), 2-8° C., 1st Month
[2] = Pack-1 (LDPE Bag with 1 g Molecular Sieve, HDPE Container), 2-8° C., 3rd Month
[3] = Pack-1 (LDPE Bag with 1 g Molecular Sieve, HDPE Container), 2-8° C., Initial
[4] = Pack-1 (LDPE Bag with 1 g Molecular Sieve, HDPE Container), 25 ± 2° C., 60 ± 5% RH, 1st Month
[5] = Pack-1 (LDPE Bag with 1 g Molecular Sieve, HDPE Container), 25 ± 2° C., 60 ± 5% RH, 3rd Month
[6] = Pack-1 (LDPE Bag with 1 g Molecular Sieve, HDPE Container), 25 ± 2° C., 60 ± 5% RH, Initial
[7] = Pack-1 (LDPE Bag with 1 g Molecular Sieve, HDPE Container), 40 ± 2° C., 75 ± 5% RH, 1st Month
[8] = Pack-1 (LDPE Bag with 1 g Molecular Sieve, HDPE Container), 40 ± 2° C., 75 ± 5% RH, 3rd Month
[9] = Pack-1 (LDPE Bag with 1 g Molecular Sieve, HDPE Container), 40 ± 2° C., 75 ± 5% RH, Initial
[10] = Pack-2 (LDPE Bag with 1 g Silica Gel, HDPE Container), 2-8° C., 1st Month
[11] = Pack-2 (LDPE Bag with 1 g Silica Gel, HDPE Container), 2-8° C., 3rd Month
[12] = Pack-2 (LDPE Bag with 1 g Silica Gel, HDPE Container), 2-8° C., Initial
[13] = Pack-2 (LDPE Bag with 1 g Silica Gel, HDPE Container), 25 ± 2° C., 60 ± 5% RH, 1st Month
[14] = Pack-2 (LDPE Bag with 1 g Silica Gel, HDPE Container), 25 ± 2° C., 60 ± 5% RH, 3rd Month
[15] = Pack-2 (LDPE Bag with 1 g Silica Gel, HDPE Container), 25 ± 2° C., 60 ± 5% RH, Initial
[16] = Pack-2 (LDPE Bag with 1 g Silica Gel, HDPE Container), 40 ± 2° C., 75 ± 5% RH, 1st Month
[17] = Pack-2 (LDPE Bag with 1 g Silica Gel, HDPE Container), 40 ± 2° C., 75 ± 5% RH, 3rd Month
[18] = Pack-2 (LDPE Bag with 1 g Silica Gel, HDPE Container), 40 ± 2° C., 75 ± 5% RH, Initial
[19] = Pack-1 (Normal LDPE Bag with 1 g Silica Gel, HDPE Container), 2-8° C., 1st Month
[20] = Pack-1 (Normal LDPE Bag with 1 g Silica Gel, HDPE Container), 2-8° C., 3rd Month
[21] = Pack-1 (Normal LDPE Bag with 1 g Silica Gel, HDPE Container), 2-8° C., Initial
[22] = Pack-1 (Normal LDPE Bag with 1 g Silica Gel, HDPE Container), 25 ± 2° C., 60 ± 5% RH, 1st Month
[23] = Pack-1 (Normal LDPE Bag with 1 g Silica Gel, HDPE Container), 25 ± 2° C., 60 ± 5% RH, 3rd Month
[24] = Pack-1 (Normal LDPE Bag with 1 g Silica Gel, HDPE Container), 25 ± 2° C., 60 ± 5% RH, Initial
[25] = Pack-1 (Normal LDPE Bag with 1 g Silica Gel, HDPE Container), 40 ± 2° C., 75 ± 5% RH, 1st Month
[26] = Pack-1 (Normal LDPE Bag with 1 g Silica Gel, HDPE Container), 40 ± 2° C., 75 ± 5% RH, 3rd Month
[27] = Pack-1 (Normal LDPE Bag with 1 g Silica Gel, HDPE Container), 40 ± 2° C., 75 ± 5% RH, Initial
[28] = Pack-2 (Black Colored LDPE Bag with 1 g Silica Gel, HDPE Container), 2-8° C., 1st Month
[29] = Pack-2 (Black Colored LDPE Bag with 1 g Silica Gel, HDPE Container), 2-8° C., 3rd Month
[30] = Pack-2 (Black Colored LDPE Bag with 1 g Silica Gel, HDPE Container), 2-8° C., Initial
[31] = Pack-2 (Black Colored LDPE Bag with 1 g Silica Gel, HDPE Container), 25 ± 2° C., 60 ± 5% RH, 1st Month
[32] = Pack-2 (Black Colored LDPE Bag with 1 g Silica Gel, HDPE Container), 25 ± 2° C., 60 ± 5% RH, 3rd Month
[33] = Pack-2 (Black Colored LDPE Bag with 1 g Silica Gel, HDPE Container), 25 ± 2° C., 60 ± 5% RH, Initial
[34] = Pack-2 (Black Colored LDPE Bag with 1 g Silica Gel, HDPE Container), 40 ± 2° C., 75 ± 5% RH, 1st Month
[35] = Pack-2 (Black Colored LDPE Bag with 1 g Silica Gel, HDPE Container), 40 ± 2° C., 75 ± 5% RH, 3rd Month
[36] = Pack-2 (Black Colored LDPE Bag with 1 g Silica Gel, HDPE Container), 40 ± 2° C., 75 ± 5% RH, Initial

- PXRD [1]: No change
- Purity [1]: 99.66%
- Water content [1]: 0.08 % w/w
- PXRD [2]: No change
- Purity [2]: 99.66%
- Water content [2]: 0.08 % w/w
- PXRD [3]: Form RNM
- Purity [3]: 99.57%
- Water content [3]: 0.12 % w/w
- PXRD [4]: No change
- Purity [4]: 99.63%
- Water content [4]: 0.07 % w/w
- PXRD [5]: No change
- Purity [5]: 99.64%
- Water content [5]: 0.08 % w/w
- PXRD [6]: Form RNM
- Purity [6]: 99.57%
- Water content [6]: 0.12 % w/w
- PXRD [7]: No change
- Purity [7]: 99.65%
- Water content [7]: 0.10 % w/w
- PXRD [8]: No change
- Purity [8]: 99.62%
- Water content [8]: 0.07 % w/w
- PXRD [9]: Form RNM
- Purity [9]: 99.57%
- Water content [9]: 0.12 % w/w
- PXRD [10]: No change
- Purity [10]: 99.62%
- Water content [10]: 0.10 % w/w
- PXRD [11]: No change
- Purity [11]: 99.65%
- Water content [11]: 0.08 % w/w
- PXRD [12]: Form RNM
- Purity [12]: 99.57%
- Water content [12]: 0.12 % w/w
- PXRD [13]: No change
- Purity [13]: 99.65%
- Water content [13]: 0.07 % w/w
- PXRD [14]: No change
- Purity [14]: 99.64%
- Water content [14]: 0.11 % w/w
- PXRD [15]: Form RNM
- Purity [15]: 99.57%
- Water content [15]: 0.12 % w/w
- PXRD [16]: No change
- Purity [16]: 99.61%
- Water content [16]: 0.12 % w/w
- PXRD [17]: No change
- Purity [17]: 99.62%
- Water content [17]: 0.07 % w/w
- PXRD [18]: Form RNM
- Purity [18]: 99.57%
- Water content [18]: 0.12 % w/w
- storage stability: stable
SMILES: Cc1nc(C(=O)NCC(=O)O)c(O)c2ccc(Oc3ccccc3)cc12.NC(=O)c1cccnc1 [Form RNM]

- PXRD [19]: No change
- Purity [19]: 99.84%
- Water content [19]: 0.11 % w/w
- PXRD [20]: No change
- Purity [20]: 99.85%
- Water content [20]: 0.14 % w/w
- PXRD [21]: Form RLP
- Purity [21]: 99.84%
- Water content [21]: 0.09 % w/w
- PXRD [22]: No change
- Purity [22]: 99.84%
- Water content [22]: 0.14 % w/w
- PXRD [23]: No change
- Purity [23]: 99.86%
- Water content [23]: 0.12 % w/w
- PXRD [24]: Form RLP
- Purity [24]: 99.84%
- Water content [24]: 0.09 % w/w
- PXRD [25]: No change
- Purity [25]: 99.84%
- Water content [25]: 0.16 % w/w
- PXRD [26]: No change
- Purity [26]: 99.83%
- Water content [26]: 0.21 % w/w
- PXRD [27]: Form RLP
- Purity [27]: 99.84%
- Water content [27]: 0.09 % w/w
- PXRD [28]: No change
- Purity [28]: 99.82%
- Water content [28]: 0.14 % w/w
- PXRD [29]: No change
- Purity [29]: 99.85%
- Water content [29]: 0.16 % w/w
- PXRD [30]: Form RLP
- Purity [30]: 99.84%
- Water content [30]: 0.09 % w/w
- PXRD [31]: No change
- Purity [31]: 99.84%
- Water content [31]: 0.11 % w/w
- PXRD [32]: No change
- Purity [32]: 99.82%
- Water content [32]: 0.13 % w/w
- PXRD [33]: Form RLP
- Purity [33]: 99.84%
- Water content [33]: 0.09 % w/w
- PXRD [34]: No change
- Purity [34]: 99.83%
- Water content [34]: 0.14 % w/w
- PXRD [35]: No change
- Purity [35]: 99.85%
- Water content [35]: 0.11 % w/w
- PXRD [36]: Form RLP
- Purity [36]: 99.84%
- Water content [36]: 0.09 % w/w
- storage stability: stable
SMILES: Cc1nc(C(=O)NCC(=O)O)c(O)c2ccc(Oc3ccccc3)cc12.O=C(O)[C@@H]1CCCN1 [Form RLP]
